Data taken from US10344025B2, “GLS1 inhibitors for treating disease” (Board of Regents, The University of Texas System, priority 2014, dated 2019).
pIC50: −log10 of the molar value.

Target: purified recombinant human GAC (GLS1) (Homo sapiens (Human), UniProt O94925)
Experiment: GLS1 Enzymatic Activity Assay (dual-coupled enzymatic assay, resorufin/Amplex UltraRed readout);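 also: glutamate from GAC coupled via glutamate oxidase and peroxidase to resorufin, read as fluorescence (ex 530, em 590 nm) kinetically or at 20 min, four-parameter logistic IC50 fit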
Format: biochemical

purified recombinant human GAC (GLS1), sequence (O94925 other isoform, or with tags, fused parts or gaps): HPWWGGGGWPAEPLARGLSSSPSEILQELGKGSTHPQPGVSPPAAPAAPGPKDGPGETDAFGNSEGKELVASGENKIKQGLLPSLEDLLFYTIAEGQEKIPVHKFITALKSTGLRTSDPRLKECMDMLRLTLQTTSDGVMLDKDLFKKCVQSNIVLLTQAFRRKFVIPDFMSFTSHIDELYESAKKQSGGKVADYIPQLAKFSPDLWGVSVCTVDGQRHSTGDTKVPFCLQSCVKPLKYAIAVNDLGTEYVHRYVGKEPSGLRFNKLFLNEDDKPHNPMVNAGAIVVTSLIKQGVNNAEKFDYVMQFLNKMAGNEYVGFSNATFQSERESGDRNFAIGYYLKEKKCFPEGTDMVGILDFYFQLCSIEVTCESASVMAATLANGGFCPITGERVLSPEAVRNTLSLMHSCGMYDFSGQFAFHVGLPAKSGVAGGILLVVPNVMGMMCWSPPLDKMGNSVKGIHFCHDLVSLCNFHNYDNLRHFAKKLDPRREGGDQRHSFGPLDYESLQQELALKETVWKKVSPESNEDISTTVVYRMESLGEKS

SMILES | pIC50
Cc1ccc(CNC(=O)c2nnc(CCCCn3cc(C(=O)NCC4CC4)nn3)s2)cn1 [Example 70, 5-(4-{4-[(cyclopropylmethyl)carbamoyl]-1H-1,2,3-triazol-1-yl}butyl)-N-[(6-methylpyridin-3-yl)methyl]-1,3,4-thiadiazole-2-carboxamide] | 5.30 to 6.30
O=C(Cc1cccnc1)Nc1cn(CCCCn2cc(C(=O)NCc3ccccn3)nn2)nn1 [Example 298, N-(pyridin-2-ylmethyl)-1-(4-{4-[2-(pyridin-3-yl)acetamido]-1H-1,2,3-triazol-1-yl}butyl)-1H-1,2,3-triazole-4-carboxamide] | 5.30 to 6.30
O=C(CN1CC(F)C1)Nc1cn(CCCCn2cc(C(=O)NCc3ccccn3)nn2)nn1 [Example 324, 1-(4-{4-[2-(3-fluoroazetidin-1-yl)acetamido]-1H-1,2,3-triazol-1-yl}butyl)-N-(pyridin-2-ylmethyl)-1H-1,2,3-triazole-4-carboxamide] | 5.30 to 6.30
O=C(CN1CC(F)(F)C1)Nc1cn(CCCCn2cc(C(=O)NCc3ccccn3)nn2)nn1 [Example 323, 1-(4-{4-[2-(3,3-difluoroazetidin-1-yl)acetamido]-1H-1,2,3-triazol-1-yl}butyl)-N-(pyridin-2-ylmethyl)-1H-1,2,3-triazole-4-carboxamide] | 5.30 to 6.30
O=C(Cc1ccccn1)Nc1cn(CC(F)CCn2cc(C(=O)NCc3ccccn3)nn2)nn1 (centres unmarked) [Example 362, 1-(3-fluoro-4-{4-[2-(pyridin-2-yl)acetamido]-1H-1,2,3-triazol-1-yl}butyl)-N-(pyridin-2-ylmethyl)-1H-1,2,3-triazole-4-carboxamide] | 5.30 to 6.30
O=C(CN1CCC(F)(F)CC1)Nc1cn(CCCCn2cc(C(=O)NCc3ccccn3)nn2)nn1 [Example 326, 1-(4-{4-[2-(4,4-difluoropiperidin-1-yl)acetamido]-1H-1,2,3-triazol-1-yl}butyl)-N-(pyridin-2-ylmethyl)-1H-1,2,3-triazole-4-carboxamide] | 5.30 to 6.30
O=C(Cc1ccccn1)Nc1cn(CC(F)CCn2cc(C(=O)NCc3ncccc3F)nn2)nn1 (centres unmarked) [Example 365, 1-(3-fluoro-4-{4-[2-(pyridin-2-yl)acetamido]-1H-1,2,3-triazol-1-yl}butyl)-N-[(3-fluoropyridin-2-yl)methyl]-1H-1,2,3-triazole-4-carboxamide] | 5.30 to 6.30
O=C(NCc1ccccn1)c1cn(CCCCn2cc(C(=O)NCc3ccccn3)nn2)nn1 [Example 71, N-(pyridin-2-ylmethyl)-1-(4-{4-[(pyridin-2-ylmethyl)carbamoyl]-1H-1,2,3-triazol-1-yl}butyl)-1H-1,2,3-triazole-4-carboxamide] | 5.30 to 6.30
O=C(CN1CC(F)C1)Nc1cn(CCCCn2cc(C(=O)NCc3cc(Cl)ccc3F)nn2)nn1 [Example 349, N-[(5-chloro-2-fluorophenyl)methyl]-1-(4-{4-[2-(3-fluoroazetidin-1-yl)acetamido]-1H-1,2,3-triazol-1-yl}butyl)-1H-1,2,3-triazole-4-carboxamide] | 6.30 to 7.00
O=C(CC1CCCC1)Nc1cn(CCCCn2cc(C(=O)NCC3CC3)nn2)nn1 [Example 304, 1-{4-[4-(2-cyclopentylacetamido)-1H-1,2,3-triazol-1-yl]butyl}-N-(cyclopropylmethyl)-1H-1,2,3-triazole-4-carboxamide] | 5.30 to 6.30
O=C(NCc1ccccc1)c1cn(CCCCc2nnc(C(=O)NCc3ccccn3)s2)nn1 [Example 40, 5-{4-[4-(benzylcarbamoyl)-1H-1,2,3-triazol-1-yl]butyl}-N-(pyridin-2-ylmethyl)-1,3,4-thiadiazole-2-carboxamide] | 6.30 to 7.00
O=C(CN1CCC(F)(F)C1)Nc1cn(CCCCn2cc(C(=O)NCc3ncccc3F)nn2)nn1 [Example 357, 1-(4-{4-[2-(3,3-difluoropyrrolidin-1-yl)acetamido]-1H-1,2,3-triazol-1-yl}butyl)-N-[(3-fluoropyridin-2-yl)methyl]-1H-1,2,3-triazole-4-carboxamide] | 5.30 to 6.30

The remaining lines, values ahead:

pIC50 | SMILES
5.30 to 6.30 | CC(C)NC(=O)c1nnc(CCCCn2cc(C(=O)NCc3ccccc3)nn2)s1 [Example 38, 5-{4-[4-(benzylcarbamoyl)-1H-1,2,3-triazol-1-yl]butyl}-N-(propan-2-yl)-1,3,4-thiadiazole-2-carboxamide]
5.30 to 6.30 | O=C(CC1CC1)Nc1cn(CCCCn2cc(C(=O)NCc3cccnc3)nn2)nn1 [Example 308, 1-{4-[4-(2-cyclopropylacetamido)-1H-1,2,3-triazol-1-yl]butyl}-N-(pyridin-3-ylmethyl)-1H-1,2,3-triazole-4-carboxamide]
6.30 to 7.00 | Cc1ccc(CNC(=O)c2cn(CCCCc3nnc(C(=O)NCC4CN(C(=O)OC(C)(C)C)C4)s3)nn2)cn1 [Example 74, tert-butyl 3-[({5-[4-(4-{[(6-methylpyridin-3-yl)methyl]carbamoyl}-1H-1,2,3-triazol-1-yl)butyl]-1,3,4-thiadiazol-2-yl}formamido)methyl] azetidine-1-carboxylate]
5.30 to 6.30 | O=C(CC1CCCCC1)Nc1cn(CCCCn2cc(C(=O)NCC3CCCC3)nn2)nn1 [Example 289, 1-{4-[4-(2-cyclohexylacetamido)-1H-1,2,3-triazol-1-yl]butyl}-N-(cyclopentylmethyl)-1H-1,2,3-triazole-4-carboxamide]
5.30 to 6.30 | O=C(Cc1ccccc1)Nc1nnc(CCCCn2cc(C(=O)NCCN3CCC(O)CC3)nn2)s1 [Example 14, N-[2-(4-hydroxypiperidin-1-yl)ethyl]-1-{4-[5-(2-phenylacetamido)-1,3,4-thiadiazol-2-yl]butyl}-1H-1,2,3-triazole-4-carboxamide]
5.30 to 6.30 | Cc1ccc(CNC(=O)c2cn(CCCCn3cc(NC(=O)CN4CC(F)(F)C4)nn3)nn2)cn1 [Example 351, 1-(4-{4-[2-(3,3-difluoroazetidin-1-yl)acetamido]-1H-1,2,3-triazol-1-yl}butyl)-N-[(6-methylpyridin-3-yl)methyl]-1H-1,2,3-triazole-4-carboxamide]
5.30 to 6.30 | O=C(CC1CCCCC1)Nc1cn(CCCCn2cc(C(=O)NCC3CCCCC3)nn2)nn1 [Example 283, 1-{4-[4-(2-cyclohexylacetamido)-1H-1,2,3-triazol-1-yl]butyl}-N-(cyclohexylmethyl)-1H-1,2,3-triazole-4-carboxamide]
5.30 to 6.30 | O=C(Cc1cccnc1)Nc1cn(CCCCn2cc(C(=O)NCC3CC3)nn2)nn1 [Example 303, N-(cyclopropylmethyl)-1-(4-{4-[2-(pyridin-3-yl)acetamido]-1H-1,2,3-triazol-1-yl}butyl)-1H-1,2,3-triazole-4-carboxamide]
5.30 to 6.30 | Cc1ccc(CNC(=O)c2cn(CCCCn3cc(NC(=O)CN4CCC(F)(F)CC4)nn3)nn2)cn1 [Example 358, 1-(4-{4-[2-(4,4-difluoropiperidin-1-yl)acetamido]-1H-1,2,3-triazol-1-yl}butyl)-N-[(6-methylpyridin-3-yl)methyl]-1H-1,2,3-triazole-4-carboxamide]
5.30 to 6.30 | O=C(CC1CC1)Nc1cn(CCCCn2cc(C(=O)NCc3ccccn3)nn2)nn1 [Example 278, 1-{4-[4-(2-cyclopropylacetamido)-1H-1,2,3-triazol-1-yl]butyl}-N-(pyridin-2-ylmethyl)-1H-1,2,3-triazole-4-carboxamide]
5.30 to 6.30 | O=C(CN1CCC(F)(F)C1)Nc1cn(CCCCn2cc(C(=O)NCc3ccccn3)nn2)nn1 [Example 325, 1-(4-{4-[2-(3,3-difluoropyrrolidin-1-yl)acetamido]-1H-1,2,3-triazol-1-yl}butyl)-N-(pyridin-2-ylmethyl)-1H-1,2,3-triazole-4-carboxamide]
